These results are taken from ChEMBL document CHEMBL4507260 (2021).

For data set [1], the target named is Phosphorylase b kinase regulatory subunit alpha, liver isoform (Homo sapiens) (UniProt P46019). Conditions: Compound concentration 1000.0 nM.
Data set [2] has as its target Dual specificity protein kinase CLK4 (Homo sapiens) (UniProt Q9HAZ1). Conditions: Compound concentration 1000.0 nM.
For data set [3], the target named is 5-hydroxytryptamine receptor 2A (Homo sapiens) (UniProt P28223). Conditions: Compound concentration 10.0 uM.
Description: 5-HT2A CEREP ligand profiling
Data set [4] concerns the target Adenosine receptor A3 (Homo sapiens) (UniProt P0DMS8). As to the kind of experiment: A3 CEREP ligand profiling. Conditions: Compound concentration 10.0 uM.
The target in data set [5] is Histamine H2 receptor (Homo sapiens) (UniProt P25021). Conditions: Compound concentration 10.0 uM.
Description: H2 CEREP ligand profiling
The target in data set [6] is Prostacyclin receptor (Homo sapiens) (UniProt P43119). Conditions: Compound concentration 10.0 uM.
Description: PGI2 CEREP ligand profiling
The target of data set [7] is Beta-1 adrenergic receptor (Homo sapiens) (UniProt P08588). Conditions: Compound concentration 10.0 uM.
Description: b 1 CEREP ligand profiling
For data set [8], the target named is Beta-2 adrenergic receptor (Homo sapiens) (UniProt P07550). Kind of data set: b 2 CEREP ligand profiling. Conditions: Compound concentration 10.0 uM.
In data set [9] the target is Pituitary adenylate cyclase-activating polypeptide type I receptor (Homo sapiens) (UniProt P41586). Conditions: Compound concentration 10.0 uM.
Description: PACAP CEREP ligand profiling
For data set [10], the target named is Adrenergic receptor alpha-2 (Homo sapiens) (UniProt P08913+P18825+P18089). Kind of data set: a 2 CEREP ligand profiling. The class given is protein assay. Conditions: Compound concentration 10.0 uM.
Data set [11] has as its target Sodium-dependent dopamine transporter (Homo sapiens) (UniProt Q01959). As to the kind of experiment: DA transporter CEREP ligand profiling. Conditions: Compound concentration 10.0 uM.
Data set [12] deals with Endothelin receptor type B (Homo sapiens) (UniProt P24530). Conditions: Compound concentration 10.0 uM.
Description: ETB CEREP ligand profiling
Data set [13] has as its target Translocator protein (Rattus norvegicus) (UniProt P16257). Conditions: Compound concentration 10.0 uM.
Description: BZD (peripheral) CEREP ligand profiling
Data set [14] has as its target Calcitonin-gene-related peptide receptor, CALCRL/RAMP1 (Homo sapiens) (UniProt O60894+Q16602). Conditions: Compound concentration 10.0 uM.
Description: CGRP CEREP ligand profiling
Data set [15] concerns the target Cannabinoid receptor 1 (Homo sapiens) (UniProt P21554). Conditions: Compound concentration 10.0 uM.
Description: CB1 CEREP ligand profiling
In data set [16] the target is Voltage-gated potassium channel (K+V channel) (Homo sapiens, UniProt O43525+O43526+O95259+P16389+P17658+P22001+P22459+P22460+P48547+P51787+P56696+Q03721+Q09470+Q12809+Q14003+Q14721+Q16322+Q6PIU1+Q8NCM2+Q8TAE7+Q8TDN1+Q8TDN2+Q92953+Q96KK3+Q96L42+Q96PR1+Q96RP8+Q9BQ31+Q9H252+Q9H3M0+Q9NR82+Q9NS40+Q9NSA2+Q9NZV8+Q9UIX4+Q9UJ96+Q9UK17+Q9ULD8+Q9ULS6+Q9UQ05). As to the kind of experiment: K+V channel CEREP ligand profiling. The class given is protein assay. Conditions: compound concentration 10 uM.

Data set [17] has as its target 5-hydroxytryptamine receptor 2C (Homo sapiens) (UniProt P28335). Conditions: Compound concentration 10.0 uM.
Description: 5-HT2C CEREP ligand profiling
For data set [18], the target named is Delta-type opioid receptor (Homo sapiens) (UniProt P41143). Conditions: Compound concentration 10.0 uM.
Description: delta CEREP ligand profiling
The target of data set [19] is Somatostatin receptor (Homo sapiens) (UniProt P35346+P30874+P31391+P30872+P32745). Conditions: Compound concentration 10.0 uM.
Description: Somatostatin CEREP ligand profiling
For data set [20], the target named is Bombesin receptor (Homo sapiens) (UniProt P28336+P32247+P30550). Conditions: Compound concentration 10.0 uM.
Description: Bombesin CEREP ligand profiling
Data set [21] concerns the target D(1A) dopamine receptor (Homo sapiens) (UniProt P21728). As to the kind of experiment: D1 CEREP ligand profiling. Conditions: Compound concentration 10.0 uM.
Data set [22] deals with D(3) dopamine receptor (Homo sapiens) (UniProt P35462). Conditions: Compound concentration 10.0 uM.
Description: D3 CEREP ligand profiling
In data set [23] the target is D(4) dopamine receptor (Homo sapiens) (UniProt P21917). Conditions: Compound concentration 10.0 uM.
Description: D4 CEREP ligand profiling
Data set [24] addresses 5-hydroxytryptamine receptor 3A (Homo sapiens) (UniProt P46098). Conditions: Compound concentration 10.0 uM.
Description: 5-HT3 CEREP ligand profiling
In data set [25] the target is Adrenergic receptor alpha-1 (Homo sapiens) (UniProt P35348+P25100+P35368). As to the kind of experiment: a 1 CEREP ligand profiling. The class given is protein assay. Conditions: Compound concentration 10.0 uM.
In data set [26] the target is Voltage-gated L-type calcium channel (Ca2+ channel) (Homo sapiens, UniProt O60840+Q01668+Q13698+Q13936). As to the kind of experiment: Ca2+ channel CEREP ligand profiling. The class given is protein assay. Conditions: compound concentration 10 uM.
The target of data set [27] is Natriuretic peptides A (Homo sapiens) (UniProt P01160). Conditions: Compound concentration 10.0 uM.
Description: ANP CEREP ligand profiling
Data set [28] has as its target Vasoactive intestinal polypeptide receptor 1 (Homo sapiens) (UniProt P32241). Conditions: Compound concentration 10.0 uM.
Description: VIP1 (VPAC1) CEREP ligand profiling
Data set [29] concerns the target Substance-P receptor (Homo sapiens) (UniProt P25103). Conditions: Compound concentration 10.0 uM.
Description: NK1 CEREP ligand profiling
Data set [30] deals with C-X-C chemokine receptor type 2 (Homo sapiens) (UniProt P25025). Conditions: Compound concentration 10.0 uM.
Description: IL-8B (CXCR2) CEREP ligand profiling
Data set [31] deals with 5-hydroxytryptamine receptor 1B (Homo sapiens) (UniProt P28222). Conditions: Compound concentration 10.0 uM.
Description: 5-HT1B CEREP ligand profiling
The target of a further data set is D(4) dopamine receptor (Homo sapiens, UniProt P21917). As to the kind of experiment: Radioligand assay (DRD4.7).
Data set [32] concerns the target Neuropeptide Y receptor type 1 (Homo sapiens) (UniProt P25929). Conditions: Compound concentration 10.0 uM.
Description: Y1 CEREP ligand profiling
The target of data set [33] is Kappa-type opioid receptor (Homo sapiens) (UniProt P41145). Kind of data set: kappa CEREP ligand profiling. Conditions: Compound concentration 10.0 uM.
In data set [34] the target is B2 bradykinin receptor (Homo sapiens) (UniProt P30411). Conditions: Compound concentration 10.0 uM.
Description: B2 CEREP ligand profiling
The target of data set [35] is Muscarinic acetylcholine receptor M2 (Homo sapiens) (UniProt P08172). Conditions: Compound concentration 10.0 uM.
Description: M2 CEREP ligand profiling
The target of data set [36] is P2X receptor (Rattus norvegicus) (UniProt P51579+P49653+P51578+Q64663+P47824+P51577+P49654). Conditions: Compound concentration 10.0 uM.
Description: P2X CEREP ligand profiling
Data set [37] addresses GABA-A receptor; anion channel (Homo sapiens) (UniProt P14867+P47870+P18507+P28472+P48169+Q99928+Q9UN88+P34903+O00591+O14764+Q8N1C3+P18505+P78334+P47869+P31644+Q16445). Conditions: Compound concentration 10.0 uM.
Description: BZD (central) CEREP ligand profiling
Data set [38] has as its target Muscarinic acetylcholine receptor M1 (Homo sapiens) (UniProt P11229). Conditions: Compound concentration 10.0 uM.
Description: M1 CEREP ligand profiling

Activity calls are given as the source filed them. The calls are words filed in the database; no cut-off is given here. Some results are limits rather than exact numbers.

Sequence of Dual specificity protein kinase CLK4 (Homo sapiens) (Q9HAZ1 whole entry, looked up): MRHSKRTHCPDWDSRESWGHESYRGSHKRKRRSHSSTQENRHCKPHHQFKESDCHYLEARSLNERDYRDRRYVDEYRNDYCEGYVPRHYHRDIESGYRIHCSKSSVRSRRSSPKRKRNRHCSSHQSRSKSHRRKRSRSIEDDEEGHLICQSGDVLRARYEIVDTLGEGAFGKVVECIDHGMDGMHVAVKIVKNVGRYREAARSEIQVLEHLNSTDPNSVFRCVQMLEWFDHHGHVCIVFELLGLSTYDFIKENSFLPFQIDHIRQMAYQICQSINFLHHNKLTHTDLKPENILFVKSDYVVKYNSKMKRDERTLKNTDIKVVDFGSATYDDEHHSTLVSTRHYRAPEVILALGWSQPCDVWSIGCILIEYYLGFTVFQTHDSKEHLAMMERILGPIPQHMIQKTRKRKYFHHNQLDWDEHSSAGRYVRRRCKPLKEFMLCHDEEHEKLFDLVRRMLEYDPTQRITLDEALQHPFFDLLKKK
Sequence of D(1A) dopamine receptor (Homo sapiens) (P21728 whole entry): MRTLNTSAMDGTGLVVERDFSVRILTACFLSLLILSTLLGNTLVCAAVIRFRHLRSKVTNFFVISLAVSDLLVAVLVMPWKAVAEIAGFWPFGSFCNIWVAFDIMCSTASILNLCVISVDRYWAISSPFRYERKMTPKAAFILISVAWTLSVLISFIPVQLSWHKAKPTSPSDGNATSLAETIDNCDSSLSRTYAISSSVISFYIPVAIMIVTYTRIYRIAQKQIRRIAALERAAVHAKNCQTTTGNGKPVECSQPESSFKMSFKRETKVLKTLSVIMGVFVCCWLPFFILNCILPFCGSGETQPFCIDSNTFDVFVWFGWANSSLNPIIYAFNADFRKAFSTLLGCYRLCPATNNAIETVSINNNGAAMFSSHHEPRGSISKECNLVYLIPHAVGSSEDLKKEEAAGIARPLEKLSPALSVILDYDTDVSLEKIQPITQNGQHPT
Sequence of Vasoactive intestinal polypeptide receptor 1 (Homo sapiens) (P32241 whole entry): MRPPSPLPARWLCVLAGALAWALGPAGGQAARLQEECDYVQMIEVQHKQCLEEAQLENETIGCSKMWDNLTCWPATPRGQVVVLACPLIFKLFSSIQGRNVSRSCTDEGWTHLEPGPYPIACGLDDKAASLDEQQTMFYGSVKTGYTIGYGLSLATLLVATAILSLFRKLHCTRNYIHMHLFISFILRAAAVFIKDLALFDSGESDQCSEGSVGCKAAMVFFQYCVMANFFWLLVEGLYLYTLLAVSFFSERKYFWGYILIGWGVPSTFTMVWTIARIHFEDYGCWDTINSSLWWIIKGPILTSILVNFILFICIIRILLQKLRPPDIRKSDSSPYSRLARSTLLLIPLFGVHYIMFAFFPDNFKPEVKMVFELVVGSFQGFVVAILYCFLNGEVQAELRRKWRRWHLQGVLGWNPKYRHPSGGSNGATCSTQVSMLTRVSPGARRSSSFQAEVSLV
Sequence of 5-hydroxytryptamine receptor 2A (Homo sapiens) (P28223 whole entry): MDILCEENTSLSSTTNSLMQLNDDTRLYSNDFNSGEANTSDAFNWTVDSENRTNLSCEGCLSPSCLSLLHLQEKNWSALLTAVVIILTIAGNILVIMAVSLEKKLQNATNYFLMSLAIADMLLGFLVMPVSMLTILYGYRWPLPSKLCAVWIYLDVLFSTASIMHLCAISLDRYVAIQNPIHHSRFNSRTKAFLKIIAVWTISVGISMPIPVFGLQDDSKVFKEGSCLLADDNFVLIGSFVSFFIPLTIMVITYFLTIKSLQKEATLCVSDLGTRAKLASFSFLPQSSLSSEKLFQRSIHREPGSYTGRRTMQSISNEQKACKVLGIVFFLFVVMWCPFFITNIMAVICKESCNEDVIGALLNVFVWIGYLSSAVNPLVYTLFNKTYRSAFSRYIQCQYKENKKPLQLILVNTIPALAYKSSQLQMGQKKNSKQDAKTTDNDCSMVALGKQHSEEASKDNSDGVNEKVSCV
Sequence of Phosphorylase b kinase regulatory subunit alpha, liver isoform (Homo sapiens) (P46019 whole entry, canonical isoform): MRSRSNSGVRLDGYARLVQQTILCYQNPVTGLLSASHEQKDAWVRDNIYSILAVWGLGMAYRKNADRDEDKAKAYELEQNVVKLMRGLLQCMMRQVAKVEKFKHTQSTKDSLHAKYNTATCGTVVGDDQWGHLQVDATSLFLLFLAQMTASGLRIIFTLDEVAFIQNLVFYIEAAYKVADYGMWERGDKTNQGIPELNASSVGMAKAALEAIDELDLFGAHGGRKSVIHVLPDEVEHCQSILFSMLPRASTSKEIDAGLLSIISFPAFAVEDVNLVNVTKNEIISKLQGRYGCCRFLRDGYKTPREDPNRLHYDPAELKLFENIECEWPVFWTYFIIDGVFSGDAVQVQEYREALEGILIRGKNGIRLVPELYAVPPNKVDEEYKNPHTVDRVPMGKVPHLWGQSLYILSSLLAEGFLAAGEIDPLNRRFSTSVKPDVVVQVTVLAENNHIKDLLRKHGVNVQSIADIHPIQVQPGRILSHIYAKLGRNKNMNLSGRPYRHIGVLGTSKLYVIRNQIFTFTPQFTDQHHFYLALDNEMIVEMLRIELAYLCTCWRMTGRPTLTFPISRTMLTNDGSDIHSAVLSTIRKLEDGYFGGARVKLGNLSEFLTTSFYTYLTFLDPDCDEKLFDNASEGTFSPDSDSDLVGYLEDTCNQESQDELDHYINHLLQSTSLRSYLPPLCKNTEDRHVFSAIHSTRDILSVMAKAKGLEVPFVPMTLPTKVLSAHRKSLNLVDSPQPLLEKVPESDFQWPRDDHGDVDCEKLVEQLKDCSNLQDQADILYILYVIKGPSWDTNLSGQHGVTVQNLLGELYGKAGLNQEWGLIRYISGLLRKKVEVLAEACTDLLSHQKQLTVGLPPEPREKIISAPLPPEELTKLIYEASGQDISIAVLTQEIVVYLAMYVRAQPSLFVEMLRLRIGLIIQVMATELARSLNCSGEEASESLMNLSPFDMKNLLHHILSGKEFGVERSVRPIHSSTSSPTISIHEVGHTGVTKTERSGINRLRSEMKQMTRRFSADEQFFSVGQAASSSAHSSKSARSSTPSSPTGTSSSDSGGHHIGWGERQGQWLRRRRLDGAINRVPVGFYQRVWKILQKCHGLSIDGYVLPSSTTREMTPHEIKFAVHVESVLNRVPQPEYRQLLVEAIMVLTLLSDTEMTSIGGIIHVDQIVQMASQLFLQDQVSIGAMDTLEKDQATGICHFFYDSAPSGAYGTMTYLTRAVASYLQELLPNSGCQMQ
Sequence of Translocator protein (Rattus norvegicus) (P16257 whole entry, looked up): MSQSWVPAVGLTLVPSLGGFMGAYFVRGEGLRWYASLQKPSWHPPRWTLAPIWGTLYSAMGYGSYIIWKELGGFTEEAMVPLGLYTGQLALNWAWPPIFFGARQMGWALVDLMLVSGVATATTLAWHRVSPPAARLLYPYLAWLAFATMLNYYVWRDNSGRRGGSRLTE
Sequence of 5-hydroxytryptamine receptor 3A (Homo sapiens) (P46098 whole entry): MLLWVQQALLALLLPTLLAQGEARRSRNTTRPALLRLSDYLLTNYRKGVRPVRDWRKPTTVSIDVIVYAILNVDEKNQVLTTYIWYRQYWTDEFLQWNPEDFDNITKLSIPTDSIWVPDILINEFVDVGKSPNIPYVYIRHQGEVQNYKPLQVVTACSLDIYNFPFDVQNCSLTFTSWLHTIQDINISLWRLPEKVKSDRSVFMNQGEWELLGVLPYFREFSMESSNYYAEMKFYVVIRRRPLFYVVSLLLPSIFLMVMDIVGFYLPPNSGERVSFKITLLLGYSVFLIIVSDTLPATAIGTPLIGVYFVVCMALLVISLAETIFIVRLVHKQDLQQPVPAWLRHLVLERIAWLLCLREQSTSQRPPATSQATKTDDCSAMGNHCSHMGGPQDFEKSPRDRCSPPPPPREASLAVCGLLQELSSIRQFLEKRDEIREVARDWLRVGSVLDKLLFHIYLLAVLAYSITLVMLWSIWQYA
Sequence of B2 bradykinin receptor (Homo sapiens) (P30411 whole entry): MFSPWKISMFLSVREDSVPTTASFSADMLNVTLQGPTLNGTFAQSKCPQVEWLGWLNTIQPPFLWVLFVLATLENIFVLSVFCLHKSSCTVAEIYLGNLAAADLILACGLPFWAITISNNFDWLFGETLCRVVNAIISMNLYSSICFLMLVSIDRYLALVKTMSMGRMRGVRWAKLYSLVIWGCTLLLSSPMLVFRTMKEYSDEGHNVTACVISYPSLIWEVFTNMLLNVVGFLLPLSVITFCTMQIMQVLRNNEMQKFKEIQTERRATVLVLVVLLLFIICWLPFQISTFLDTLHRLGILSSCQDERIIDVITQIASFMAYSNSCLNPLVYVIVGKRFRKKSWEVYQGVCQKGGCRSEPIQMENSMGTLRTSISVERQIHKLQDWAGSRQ
Sequence of Endothelin receptor type B (Homo sapiens) (P24530 whole entry): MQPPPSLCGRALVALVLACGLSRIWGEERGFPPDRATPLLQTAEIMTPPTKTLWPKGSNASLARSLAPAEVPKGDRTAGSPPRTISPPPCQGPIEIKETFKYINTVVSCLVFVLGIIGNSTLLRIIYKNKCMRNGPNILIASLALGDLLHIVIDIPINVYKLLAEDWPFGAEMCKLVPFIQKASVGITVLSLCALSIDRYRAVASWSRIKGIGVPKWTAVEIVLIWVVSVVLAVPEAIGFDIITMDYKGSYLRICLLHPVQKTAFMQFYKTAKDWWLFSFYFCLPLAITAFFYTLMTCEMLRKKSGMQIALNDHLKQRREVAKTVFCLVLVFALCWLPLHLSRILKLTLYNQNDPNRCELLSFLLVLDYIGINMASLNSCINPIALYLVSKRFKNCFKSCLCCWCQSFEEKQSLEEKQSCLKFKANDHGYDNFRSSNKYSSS
Sequence of C-X-C chemokine receptor type 2 (Homo sapiens) (P25025 whole entry): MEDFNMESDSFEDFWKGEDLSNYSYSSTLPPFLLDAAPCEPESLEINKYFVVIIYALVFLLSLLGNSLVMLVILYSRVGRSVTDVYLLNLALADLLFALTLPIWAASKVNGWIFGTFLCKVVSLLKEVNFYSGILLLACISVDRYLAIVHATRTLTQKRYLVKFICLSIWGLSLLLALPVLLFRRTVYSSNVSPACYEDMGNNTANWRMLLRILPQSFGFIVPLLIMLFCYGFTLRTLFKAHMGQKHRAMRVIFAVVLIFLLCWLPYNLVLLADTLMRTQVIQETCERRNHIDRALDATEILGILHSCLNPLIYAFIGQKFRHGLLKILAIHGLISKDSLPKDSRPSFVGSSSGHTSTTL

In general, residual activity refers to the signal under treatment as a percentage of the control signal. In the case of `CSc1cccnc1N1CCN(Cc2nc3ccccc3[nH]2)CC1` [A-769], the residual activity in data set [1] and in data set [2] was 100% throughout.
For orientation: inhibition means the drop in the measured response relative to a control, in per cent. For orientation: Ki means a measure of affinity in units of concentration, obtained from inhibition or displacement. As to `c1ccc(N2CCN(Cc3nc4ccccc4[nH]3)CC2)nc1` [ABT-724], the inhibition in [3] was < 10%; in [4], 11%; in data set [5], < 10%; in data set [6] it was < 10%; in [7], < 10%; in [8], 13%. Also, the inhibition in data set [9] is < 10%; in [10] it was 21%; in [11], 11%; in [12], < 10%; in [13], < 10%; in [14], < 10%. The inhibition in data set [15] was < 10%; in data set [17], 10%; in data set [18] it was < 10%; in data set [19], < 10%; in [20], < 10%; in data set [21] it was 24%. The inhibition in [22] was < 10%; in data set [23], 99%; in data set [24] it was 10%; in [25], 23%; in data set [27] it was < 10%; in data set [28], < 10%. Also, the inhibition in data set [29] is < 10%; in [30], < 10%; in data set [31], < 10%; in data set [32], < 10%; in data set [33], 68%; in data set [34], < 10%. The inhibition in data set [35], in [36], in data set [37] and in data set [38] was < 10% each time. The inhibition at 10 µM in data set [16] and in data set [26] was < 10% (not active) in each case. For the same compound, the Ki on D(4) dopamine receptor was 0.0468 µM (active).
